Like-named read-outs stand apart in the source and are kept apart here.
Columns and labels:
Assay type in all cases: cell-based
[1] = target: T1, pERK1/2 (Thr202/Tyr204), NCI-1H358 (KRAS G12C) (Homo sapiens, UniProt P01116, G12C); assay: Assay of intracellular pERK1/2 (Thr202/Tyr204) phosphorylation in NCI-H358 cells (KRAS G12C)
T1 construct: pERK1/2 HTRF read-out
Summary of the method: (§1)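 Cells (10000-12000/well) exposed to 3-fold compound dilutions for 2 days at 37 °C, then lysed; pERK1/2 (Thr202/Tyr204) measured by HTRF with d2 and cryptate antibodies, 665/615 nm ratio.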

[2] = target: T2, pERK1/2 (Thr202/Tyr204), PANC-1 (KRAS G121D) (Homo sapiens, UniProt P01116, G12D); assay: Assay of intracellular pERK1/2 (Thr202/Tyr204) phosphorylation in PANC-1 cells (KRAS G12D)
T2 construct: pERK1/2 HTRF read-out
Summary of the method: as §1

[3] = target: T3, pERK1/2 (Thr202/Tyr204), NCI-1H441 (KRAS G12V) (Homo sapiens, UniProt P01116, G12V); assay: Assay of intracellular pERK1/2 (Thr202/Tyr204) phosphorylation in NCI-H441 cells (KRAS G12V)
T3 construct: pERK1/2 HTRF read-out
Summary of the method: as §1

[4] = pERK1/2, 2 days, read-out: NCI-H358 (KRAS G12C) IC50
[5] = pERK1/2, 2 days, read-out: PANC-1 (KRAS G12D) IC50
[6] = pERK1/2, 2 days, read-out: NCI-H441 (KRAS G12V) IC50

T2 sequence (P01116 1-188 isoform P01116-2 G12D): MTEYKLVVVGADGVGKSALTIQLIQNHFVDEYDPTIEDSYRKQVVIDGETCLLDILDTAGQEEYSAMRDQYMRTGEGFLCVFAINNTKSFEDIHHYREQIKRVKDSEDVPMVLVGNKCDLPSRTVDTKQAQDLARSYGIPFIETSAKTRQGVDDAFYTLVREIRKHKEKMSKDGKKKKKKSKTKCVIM
T3 sequence (P01116 1-188 isoform P01116-2 G12V): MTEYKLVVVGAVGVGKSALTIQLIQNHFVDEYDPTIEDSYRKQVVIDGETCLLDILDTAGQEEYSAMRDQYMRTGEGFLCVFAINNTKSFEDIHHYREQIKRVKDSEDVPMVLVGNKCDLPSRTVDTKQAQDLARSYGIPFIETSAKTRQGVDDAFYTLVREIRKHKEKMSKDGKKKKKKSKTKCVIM
T1 sequence (P01116 1-188 isoform P01116-2 G12C): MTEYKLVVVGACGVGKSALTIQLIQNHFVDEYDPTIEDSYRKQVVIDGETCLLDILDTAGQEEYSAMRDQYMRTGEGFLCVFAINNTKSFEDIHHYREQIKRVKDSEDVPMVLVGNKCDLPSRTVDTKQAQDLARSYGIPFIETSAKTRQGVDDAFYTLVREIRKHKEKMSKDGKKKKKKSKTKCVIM

Compound	IC50 [1, 4] [µM]	IC50 [2, 5] [µM]	IC50 [3, 6] [µM]	IC50 ([1]; read-out: NCI-H358 (KRAS G12C) IC50, pERK1/2, 2 days) [µM]	IC50 ([2]; read-out: PANC-1 (KRAS G12D) IC50, pERK1/2, 2 days) [µM]	IC50 ([3]; read-out: NCI-H441 (KRAS G12V) IC50, pERK1/2, 2 days) [µM]
CC(c1cccnc1N)N1c2nc(OC[C@@]34CCCN3C[C@H](F)C4)nc3c(F)c(-c4c(C(F)(F)F)ccc5c4CCCN5)nc(c23)OC[C@@H]1C (single isomer, unassigned; diastereomer 2) [Compound 339, (*)3-(1-((5R or 5S,9S)-4-fluoro-2-(((2R,7aS)-2-fluorotetrahydro-1H-pyrrolizin-7a(5H)-yl)methoxy)-9-methyl-5-(6-(trifluoromethyl)-1,2,3,4-tetrahydroquinolin-5-yl)-8,9-dihydro-10H-7-oxa-1,3,6,10-tetraazacyclohepta[de]naphthalen-10-yl)ethyl)pyridin-2-amine (diastereomer 2)]	> 0.1	> 0.1	> 0.1	–	–	–
Cc1c(-c2nc3c4c(nc(OC[C@@]56CCCN5C[C@H](F)C6)nc4c2F)N(C(C)c2cccnc2N)[C@@H](C)CO3)ccc2cn[nH]c12 (stereo partly drawn) [Compound 324]	0.028	> 0.1	> 0.1	–	–	–
CC(c1cccnc1N)N1CCOc2nc(-c3cc(O)cc(F)c3C3CC3)c(F)c3nc(OC[C@@H]4CC(F)(F)CN4C)nc1c23 (stereo partly drawn) [Compound 45]	0.038	> 1	0.053	–	–	–
CC(c1cccnc1N)N1c2nc(OC[C@@]34CCCN3C[C@H](F)C4)nc3c(F)c(-c4cc(N)cc(Cl)c4)nc(c23)OC[C@@H]1C (stereo partly drawn) [Compound 306]	0.016	0.093	0.04	–	–	–
CCc1c(F)ccc2cc(OC(=O)NC)cc(-c3nc4c5c(nc(OC[C@@]67CCCN6C[C@H](F)C7)nc5c3F)N(C(C)c3cccnc3N)[C@@H](C)CO4)c12 (stereo partly drawn) [Compound 296]	–	–	–	0.0005	0.0003	0.002
CC(c1cccnc1N)N1c2nc(OC[C@@]34CCCN3C[C@H](F)C4)nc3c(F)c(-c4ccc(F)c5sc(N)c(C(N)=O)c45)nc(c23)OC[C@@H]1C (stereo partly drawn) [Compound 327]	> 0.1	> 0.1	> 0.1	–	–	–
Cc1cc2[nH]ncc2c(-c2nc3c4c(nc(OC[C@@]56CCCN5C[C@H](F)C6)nc4c2F)N(C(C)c2cccnc2N)[C@H]2CCOC[C@@H]2O3)c1C(F)(F)F (stereo partly drawn) [Compound 388]	> 0.1	> 0.1	> 0.1	–	–	–
Cc1cc(N)nc(-c2nc3c4c(nc(OC[C@@]56CCCN5C[C@H](F)C6)nc4c2F)N(C(C)c2cccnc2N)[C@@H](C)CO3)c1 (stereo partly drawn) [Compound 329]	> 0.1	> 0.1	> 0.1	–	–	–
CC[C@H]1COc2nc(-c3c(C(F)(F)F)c(C)cc4[nH]ncc34)c(F)c3nc(OC[C@@]45CCCN4C[C@H](F)C5)nc(c23)N1C(C)c1cccnc1N (stereo partly drawn) [Compound 387]	0.002	0.017	0.005	–	–	–
CC(c1cccnc1N)N1CCOc2nc(-c3cc(O)cc(F)c3C3CC3)c(F)c3nc(OC[C@@H]4CCN4CC(F)F)nc1c23 (single isomer, unassigned) [Compound 23, 3-(10-((R or S)-1-(2-aminopyridin-3-yl)ethyl)-2-(((S)-1-(2,2-difluoroethyl)azetidin-2-yl)methoxy)-4-fluoro-9,10-dihydro-8H-7-oxa-1,3,6,10-tetraazacyclohepta[de]naphthalen-5-yl)-4-cyclopropyl-5-fluorophenol]	> 1	> 1	> 1	–	–	–

Second part, led by results:

IC50 [1, 4] [µM]	IC50 [2, 5] [µM]	IC50 [3, 6] [µM]	Compound	IC50 ([1]; read-out: NCI-H358 (KRAS G12C) IC50, pERK1/2, 2 days) [µM]	IC50 ([2]; read-out: PANC-1 (KRAS G12D) IC50, pERK1/2, 2 days) [µM]	IC50 ([3]; read-out: NCI-H441 (KRAS G12V) IC50, pERK1/2, 2 days) [µM]
0.066	> 0.1	> 0.1	CC(c1cccnc1N)N1c2nc(OC[C@@]34CCCN3C[C@H](F)C4)nc3c(F)c(-c4cc(N)cc(Cl)c4C(F)(F)F)nc(c23)OC[C@@H]1C (single isomer, unassigned) [Compound 271, 3-((R or S)-1-((S)-5-(5-amino-3-chloro-2-(trifluoromethyl)phenyl)-4-fluoro-2-(((2R,7aS)-2-fluorotetrahydro-1H-pyrrolizin-7a(5H)-yl)methoxy)-9-methyl-8,9-dihydro-10H-7-oxa-1,3,6,10-tetraazacyclohepta[de]naphthalen-10-yl)ethyl)pyridin-2-amine]	–	–	–
0.0002	0.001	0.0005	Cc1c(F)c(N)cc(-c2nc3c4c(nc(OC[C@@]56CCCN5CC(=C(F)F)C6)nc4c2F)N(C(C)c2cccnc2N)CCO3)c1C(F)(F)F (stereo partly drawn) [Compound 243]	–	–	–
0.029	> 0.1	0.043	Cc1c(F)c(N)cc(-c2nc3c4c(nc(OC[C@@H]5CCCN5C)nc4c2F)N(C(C)c2cccnc2N)CCO3)c1C(F)(F)F (single isomer, unassigned) [Compound 86, 3-((R or S)-1-(5-(5-amino-4-fluoro-3-methyl-2-(trifluoromethyl)phenyl)-4-fluoro-2-(((S)-1-methylpyrrolidin-2-yl)methoxy)-8,9-dihydro-10H-7-oxa-1,3,6,10-tetraazacyclohepta[de]naphthalen-10-yl)ethyl)pyridin-2-amine]	–	–	–
0.001	0.02	0.003	[2H]C1([2H])CC[C@@]2(C([2H])([2H])Oc3nc4c5c(nc(-c6cc(N)c(F)c(C)c6C(F)(F)F)c(F)c5n3)OCCN4C(C)c3cccnc3N)C[C@]([2H])(F)CN12 (single isomer, unassigned; diastereomer 2) [Compound 179, (*)3-(1-(5-(5-amino-4-fluoro-3-methyl-2-(trifluoromethyl)phenyl)-4-fluoro-2-(((2R or 2S,7aS)-2-fluorotetrahydro-1H-pyrrolizin-7a(5H)-yl-2,5,5-d3)methoxy-d2)-8,9-dihydro-10H-7-oxa-1,3,6,10-tetraazacyclohepta[de]naphthalen-10-yl)ethyl)pyridin-2-amine (diastereomer 2)]	–	–	–
> 0.1	> 0.1	> 0.1	Cc1c(F)c(N)cc(-c2nc3c4c(nc(OC[C@@]56CCCN5C[C@H](F)C6)nc4c2F)N(C(C)c2cccnc2N)[C@H](C)CO3)c1C(F)(F)F (single isomer, unassigned) [Compound 256, 3-((R or S)-1-((R)-5-(5-amino-4-fluoro-3-methyl-2-(trifluoromethyl)phenyl)-4-fluoro-2-(((2R,7aS)-2-fluorotetrahydro-1H-pyrrolizin-7a(5H)-yl)methoxy)-9-methyl-8,9-dihydro-10H-7-oxa-1,3,6,10-tetraazacyclohepta[de]naphthalen-10-yl)ethyl)pyridin-2-amine]	–	–	–
0.0004	0.013	0.001	[2H]C1([2H])Oc2nc(-c3cc(N)c(F)c(C)c3C(F)(F)F)c(F)c3nc(OC[C@@H]4C[C@@H](F)CN4C)nc(c23)N(C(C)c2cccnc2N)C1([2H])[2H] (single isomer, unassigned) [Compound 202, 3-((R or S)-1-(5-(5-amino-4-fluoro-3-methyl-2-(trifluoromethyl)phenyl)-4-fluoro-2-(((2S,4R)-4-fluoro-1-methylpyrrolidin-2-yl)methoxy)-8,9-dihydro-10H-7-oxa-1,3,6,10-tetraazacyclohepta[de]naphthalen-10-yl-8,8,9,9-d4)ethyl)pyridin-2-amine]	–	–	–
0.0001	0.003	0.0006	CC(c1cccnc1N)N1CCOc2nc(-c3cc(O)cc(Cl)c3C3CC3)c(F)c3nc(OC[C@@]45CCCN4C[C@H](F)C5)nc1c23 (single isomer, unassigned) [Compound 44, 3-(10-((R or S)-1-(2-aminopyridin-3-yl)ethyl)-4-fluoro-2-(((2R,7aS)-2-fluorotetrahydro-1H-pyrrolizin-7a(5H)-yl)methoxy)-9,10-dihydro-8H-7-oxa-1,3,6,10-tetraazacyclohepta[de]naphthalen-5-yl)-5-chloro-4-cyclopropylphenol]	–	–	–
0.0002	0.0008	0.0005	Cc1c(F)c(N)cc(-c2nc3c4c(nc(OC[C@@]56CCCN5CC5(CC5(F)F)C6)nc4c2F)N(C(C)c2cccnc2N)CCO3)c1C(F)(F)F (single isomer, unassigned) [Compound 228]	–	–	–
0.0002	0.002	0.0006	CC(c1cccnc1N)N1CCOc2nc(-c3cc(N)c(F)c(Cl)c3C(F)(F)F)c(F)c3nc(OC[C@@]45CCCN4CC4(CC4(F)F)C5)nc1c23 (single isomer, unassigned) [Compound 227]	–	–	–
0.0005	0.007	0.001	[2H]C1([2H])CC[C@@]2(C([2H])([2H])Oc3nc4c5c(nc(-c6cc(O)cc(Cl)c6C6CC6)c(F)c5n3)OCCN4C(C)c3cccnc3N)C[C@@H](F)CN12 (single isomer, unassigned) [Compound 131, 3-(10-((R or S)-1-(2-aminopyridin-3-yl)ethyl)-4-fluoro-2-(((2R,7aS)-2-fluorotetrahydro-1H-pyrrolizin-7a(5H)-yl-5,5-d2)methoxy-d2)-9,10-dihydro-8H-7-oxa-1,3,6,10-tetraazacyclohepta[de]naphthalen-5-yl)-5-chloro-4-cyclopropylphenol]	–	–	–
> 0.1	> 0.1	> 0.1	Cc1cc(N)cc(-c2nc3c4c(nc(OC[C@@]56CCCN5C[C@H](F)C6)nc4c2F)N(C(C)c2cccnn2)CCO3)c1C(F)(F)F (single isomer, unassigned) [Compound 127, 3-(4-fluoro-2-(((2R,7aS)-2-fluorotetrahydro-1H-pyrrolizin-7a(5H)-yl)methoxy)-10-((R or S)-1-(pyridazin-3-yl)ethyl)-9,10-dihydro-8H-7-oxa-1,3,6,10-tetraazacyclohepta[de]naphthalen-5-yl)-5-methyl-4-(trifluoromethyl)aniline]	–	–	–
